Data on one compound can be found in the NIST ThermoML archive (doi:10.1021/je8009978).

For data set [1] the following is noted: Liquid.
Data set [2] in a line: refractive index (Na D-line) (dimensionless). Conditions: 298.15 K; 101.33 kPa; Liquid; Standard Abbe refractometry.

SMILES strings stand for the structures. Numbers after ± are expanded uncertainties.

What is called mass density is the mass of a sample divided by its volume. By refractive index is commonly meant the speed of light in vacuum divided by its phase velocity in the sample.

With `CC(C)CO` [2-methyl-1-propanol], in data set [1] (298.15 K, 101.33 kPa, Vibrating tube method), the mass density stood at 797.6 ± 0.3 kg/m3. In data set [1] (Closed cell (Static) method), the Normal boiling temperature worked out at 107.83 ± 0.2 °C. For the same compound, in data set [2], the refractive index is listed as 1.3939 ± 0.0004.
